# Patent US10722520B2, “Heterocyclic compounds and their use in preventing or treating bacterial infections” (MUTABILIS, priority 2016, dated 2020)
# Tests used:
# TEM-1 = TEM-1 (Escherichia coli, UniProt P62593); conditions: read-out: IC50 β-lactamase TEM-1; class (A); nitrocefin 200 μM, 30-min pre-incubation, enzyme 0.1 nM
# CMY-37 = CMY-37 (Citrobacter freundii, UniProt P05193); conditions: read-out: IC50 β-lactamase CMY-37; class (C); nitrocefin 200 μM, 30-min pre-incubation, enzyme 0.2 nM
# CTX-M-15 = CTX-M-15 (Escherichia coli, UniProt Q9EXV5); conditions: read-out: IC50 β-lactamase CTX-M-15; class (A); nitrocefin 200 μM, 30-min pre-incubation, enzyme 0.4 nM
# OXA-11 = OXA-11 (Pseudomonas aeruginosa, UniProt Q06778); conditions: read-out: IC50 β-lactamase OXA-11; class (D); nitrocefin 200 μM, 30-min pre-incubation, enzyme 1.2 nM
# OXA-15 = OXA-15 (Pseudomonas aeruginosa, UniProt Q51574); conditions: read-out: IC50 β-lactamase OXA-15; class (D); nitrocefin 200 μM, 30-min pre-incubation, enzyme 0.4 nM
# AmpC (P99) = AmpC (P99) (Enterobacter cloacae, UniProt P05364); conditions: read-out: IC50 β-lactamase AmpC (P99); class (C); nitrocefin 200 μM, 30-min pre-incubation, enzyme 0.2 nM
# SHV-1 = SHV-1 (Klebsiella pneumoniae, UniProt P0AD64); conditions: read-out: IC50 β-lactamase SHV-1; class (A); nitrocefin 200 μM, 30-min pre-incubation, enzyme 0.075 nM
# E. cloacae P99 [1] = test: MIC of compound alone, broth microdilution; type: cell-based; conditions: strain P99; compound alone
# In short: (§1)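 Visual end point: lowest concentration that blocked growth. Conditions: cation-adjusted Mueller-Hinton broth, 5×10^5 cfu/mL final inoculum of log-phase bacteria, 16-20 h, 35° C, ambient atmosphere.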
# K. pneumoniae BAA-1898 [2] = test: MIC of compound alone, broth microdilution; type: cell-based; conditions: strain BAA-1898; compound alone
# In short: as §1
# P. aeruginosa CIP107051 [3] = test: MIC of compound alone, broth microdilution; type: cell-based; conditions: strain CIP107051; compound alone
# In short: as §1
# E. coli 190317 [4] = test: MIC of compound alone, broth microdilution; type: cell-based; conditions: strain 190317; compound alone
# In short: as §1
# K. pneumoniae 6299 [5] = test: MIC of compound alone, broth microdilution; type: cell-based; conditions: strain 6299; compound alone
# In short: as §1
# KPC-2 = KPC-2 (Klebsiella pneumoniae, UniProt Q9F663); conditions: read-out: IC50 β-lactamase KPC-2; class (A); nitrocefin 200 μM, 30-min pre-incubation, enzyme 1 nM
# AmpC (PAE) = AmpC (PAE) (Pseudomonas aeruginosa, UniProt P24735); conditions: read-out: IC50 β-lactamase AmpC (PAE); class (C); nitrocefin 200 μM, 30-min pre-incubation, enzyme 0.4 nM
# OXA-1 = OXA-1 (Escherichia coli, UniProt P13661); conditions: read-out: IC50 β-lactamase OXA-1; class (D); nitrocefin 200 μM, 30-min pre-incubation, enzyme 0.2 nM
# E. cloacae P99 [6] = test: MIC of ceftazidime (CAZ) at fixed concentration of compound (synergy), broth microdilution; type: cell-based; conditions: strain P99; MIC of CAZ, compound fixed at 4 μg/mL
# In short: as §1
# K. pneumoniae BAA-1898 [7] = test: as above; type: cell-based; conditions: strain BAA-1898; MIC of CAZ, compound fixed at 4 μg/mL
# In short: as §1
# P. aeruginosa CIP107051 [8] = test: as above; type: cell-based; conditions: strain CIP107051; MIC of CAZ, compound fixed at 4 μg/mL
# In short: as §1
# E. coli 190317 [9] = test: as above; type: cell-based; conditions: strain 190317; MIC of CAZ, compound fixed at 4 μg/mL
# In short: as §1
# K. pneumoniae 6299 [10] = test: as above; type: cell-based; conditions: strain 6299; MIC of CAZ, compound fixed at 4 μg/mL
# In short: as §1
# OXA-48 = OXA-48 (Klebsiella pneumoniae, UniProt Q6XEC0); conditions: read-out: IC50 β-lactamase OXA-48; class (D); nitrocefin 200 μM, 30-min pre-incubation, enzyme 0.3 nM
SMILES,IC50 (TEM-1) [nM],IC50 (CMY-37) [nM],IC50 (CTX-M-15) [nM],IC50 (OXA-11) [nM],IC50 (OXA-15) [nM],IC50 (AmpC (P99)) [nM],IC50 (SHV-1) [nM],MIC compounds of the invention alone (E. cloacae P99 [1]) [µg/mL],MIC compounds of the invention alone (K. pneumoniae BAA-1898 [2]) [µg/mL],MIC compounds of the invention alone (P. aeruginosa CIP107051 [3]) [µg/mL],MIC compounds of the invention alone (E. coli 190317 [4]) [µg/mL],MIC compounds of the invention alone (K. pneumoniae 6299 [5]) [µg/mL],IC50 (KPC-2) [nM],IC50 (AmpC (PAE)) [nM],IC50 (OXA-1) [nM],MIC combination of CAZ and compounds of the invention at 4 μg/mL (E. cloacae P99 [6]) [µg/mL],MIC combination of CAZ and compounds of the invention at 4 μg/mL (K. pneumoniae BAA-1898 [7]) [µg/mL],MIC combination of CAZ and compounds of the invention at 4 μg/mL (P. aeruginosa CIP107051 [8]) [µg/mL],MIC combination of CAZ and compounds of the invention at 4 μg/mL (E. coli 190317 [9]) [µg/mL],MIC combination of CAZ and compounds of the invention at 4 μg/mL (K. pneumoniae 6299 [10]) [µg/mL],further results
"O=C(O)C(F)(F)F.O=C1N2CC(n3ccc(CNc4nccs4)n3)=CC(C2)N1OS(=O)(=O)[O-].[Na+] (stereo not drawn) [Example 35, sodium and 2,2,2-trifluoroacetate [7-oxo-3-[3-(methylene-2-ammoniumthiazole)pyrazol-1-yl]-1,6-diazabicyclo[3.2.1]oct-3-en-6-yl]sulfate]",0.73,8.1,0.5,54,79,12,3.2,>32,>32,>32,16,>32,13,52,130,32,32,16,0.5,32,IC50 (OXA-48): 6 nM
O=C1N2CC(n3cc(N4CCOCC4)cn3)=CC(C2)N1OS(=O)(=O)[O-].[Na+] (stereo not drawn) [Example 20],1.3,140,3,7100,140,230,5.1,>32,>32,>32,>32,>32,120,910,6200,>128,>128,>128,128,>128,IC50 (OXA-48): 68 nM
"CN(C)Cc1cn(C2=CC3CN(C2)C(=O)N3OS(=O)(=O)[O-])nn1.[Na+] (stereo not drawn) [Example 59, sodium [3-[4-(dimethylamino)methyltriazol-1-yl]-7-oxo-1,6-diazabicyclo[3.2.1]oct-3-en-6-yl]sulfate]",0.69,72,0.55,170,6.6,34,2.5,2,>32,>32,1,>32,12,590,210,<0.25,≤0.25,8,<0.25,≤0.25,IC50 (OXA-48): 1.2 nM
